ChEMBL document CHEMBL1909046, “DrugMatrix in vitro pharmacology data”

Assays:
[1] = target: T1, Cytochrome P450 2A6 (Homo sapiens, UniProt P11509); details: bti-tn-5b1-4; also: in other assays of this panel Not Active means under 50% inhibition at 10 µM
T1 sequence (P11509 whole entry): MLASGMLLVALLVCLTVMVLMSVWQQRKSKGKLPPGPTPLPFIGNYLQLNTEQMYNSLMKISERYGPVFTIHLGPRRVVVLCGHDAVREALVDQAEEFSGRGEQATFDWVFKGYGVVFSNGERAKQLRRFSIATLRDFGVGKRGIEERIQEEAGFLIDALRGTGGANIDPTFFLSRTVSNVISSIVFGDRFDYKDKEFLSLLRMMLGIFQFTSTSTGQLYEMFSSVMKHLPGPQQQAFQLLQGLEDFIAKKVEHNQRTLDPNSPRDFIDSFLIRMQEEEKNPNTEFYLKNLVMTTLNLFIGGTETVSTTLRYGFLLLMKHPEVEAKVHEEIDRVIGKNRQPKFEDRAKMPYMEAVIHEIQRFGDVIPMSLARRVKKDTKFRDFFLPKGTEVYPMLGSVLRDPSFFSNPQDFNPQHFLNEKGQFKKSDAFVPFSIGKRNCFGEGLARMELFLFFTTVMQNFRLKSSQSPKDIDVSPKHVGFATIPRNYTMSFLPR

[2] = target: T2, Caspase-1 (Homo sapiens, UniProt P29466); design: species or system Escherichia coli;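 also: Caspase-1 enzyme inhibition assay with a peptide substrate; in other assays of this panel Not Active means under 50% inhibition at 10 µM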
T2 sequence (P29466 whole entry): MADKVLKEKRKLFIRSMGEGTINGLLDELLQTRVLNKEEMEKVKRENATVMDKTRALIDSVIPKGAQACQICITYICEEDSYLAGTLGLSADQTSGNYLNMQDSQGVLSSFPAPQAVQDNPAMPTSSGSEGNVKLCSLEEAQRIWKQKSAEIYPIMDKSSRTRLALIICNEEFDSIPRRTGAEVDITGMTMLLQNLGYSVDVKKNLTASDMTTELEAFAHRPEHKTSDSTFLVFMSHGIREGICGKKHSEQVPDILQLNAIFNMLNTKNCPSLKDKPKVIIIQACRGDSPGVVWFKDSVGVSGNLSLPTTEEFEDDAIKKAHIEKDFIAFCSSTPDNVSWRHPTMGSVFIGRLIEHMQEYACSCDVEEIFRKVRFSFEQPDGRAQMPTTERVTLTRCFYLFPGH

[3] = DRUGMATRIX: Purinergic P2X radioligand binding (ligand: [3H] alpha, beta-Methylene-ATP); format: cell membranes, Oryctolagus cuniculus, New Zealand albino, Urinary bladder, Membrane; details: Not Active = under 50% inhibition at 10 µM
[4] = target: T3, Muscarinic acetylcholine receptor M2 (Homo sapiens, UniProt P08172); format: cell membranes, CHO-K1, Membrane; details: cho-k1; also: in other assays of this panel Not Active means under 50% inhibition at 10 µM
T3 sequence (P08172 whole entry): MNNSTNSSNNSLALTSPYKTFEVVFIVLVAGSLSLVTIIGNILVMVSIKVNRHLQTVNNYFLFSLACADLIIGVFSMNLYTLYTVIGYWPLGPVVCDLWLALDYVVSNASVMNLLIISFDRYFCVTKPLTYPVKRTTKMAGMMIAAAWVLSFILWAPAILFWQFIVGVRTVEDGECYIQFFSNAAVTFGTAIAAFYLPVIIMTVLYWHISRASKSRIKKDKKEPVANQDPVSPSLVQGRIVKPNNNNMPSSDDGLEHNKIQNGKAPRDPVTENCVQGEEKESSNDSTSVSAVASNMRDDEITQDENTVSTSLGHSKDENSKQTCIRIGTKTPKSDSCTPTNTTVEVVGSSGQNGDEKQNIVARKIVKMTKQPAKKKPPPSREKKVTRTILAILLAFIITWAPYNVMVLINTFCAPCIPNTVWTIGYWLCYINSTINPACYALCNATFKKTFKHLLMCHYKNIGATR

[5] = DRUGMATRIX: Calcium Channel Type L, Dihydropyridine radioligand binding (ligand: [3H] Nitrendipine); format: cell membranes, Rattus norvegicus, Wistar, Cerebral cortex, Membrane; details: Not Active = under 50% inhibition at 10 µM
[6] = target: Melanocortin receptor 4 (Homo sapiens, UniProt P32245); format: cell membranes, Membrane; details: hek293; also: in other assays of this panel Not Active means under 50% inhibition at 10 µM
[7] = target: T4, Leukotriene C4 synthase (Cavia porcellus, UniProt A6XA80); test: biochemical; format: tissue-based, Lung
T4 sequence (A6XA80 whole entry): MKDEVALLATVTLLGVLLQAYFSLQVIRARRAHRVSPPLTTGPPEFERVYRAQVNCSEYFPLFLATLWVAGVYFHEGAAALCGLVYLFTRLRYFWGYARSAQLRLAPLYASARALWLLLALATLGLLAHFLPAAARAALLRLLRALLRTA

[8] = target: Protein phosphatase 3 catalytic subunit alpha (Homo sapiens, UniProt Q08209); design: species or system Escherichia coli

Sequence of Melanocortin receptor 4 (P32245 whole entry): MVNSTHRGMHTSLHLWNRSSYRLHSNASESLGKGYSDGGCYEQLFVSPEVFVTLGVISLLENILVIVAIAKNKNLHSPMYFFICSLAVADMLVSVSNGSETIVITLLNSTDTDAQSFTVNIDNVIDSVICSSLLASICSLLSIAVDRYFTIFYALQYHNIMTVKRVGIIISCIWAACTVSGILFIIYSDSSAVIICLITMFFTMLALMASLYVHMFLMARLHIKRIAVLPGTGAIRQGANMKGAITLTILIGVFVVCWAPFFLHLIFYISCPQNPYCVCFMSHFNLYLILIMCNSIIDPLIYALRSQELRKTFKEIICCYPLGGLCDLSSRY

C#C[C@]1(O)CC[C@H]2[C@@H]3CCC4=CC(=O)CC[C@@H]4[C@H]3CC[C@@]21C [NORETHINDRONE]
Not Active: IC50 [1] | Ki [1] | IC50 [2] | IC50 [3] | Ki [3] | IC50 [4] | IC50 [5] | Ki [5] | IC50 [6] | IC50 [7] | IC50 [8]

Cl.NC[C@H]1CC[C@H](C(=O)Oc2ccc(CCC(=O)O)cc2)CC1 [CETRAXATE HYDROCHLORIDE]
Not Active: IC50 [1] | Ki [1] | IC50 [2] | IC50 [3] | Ki [3] | IC50 [4] | IC50 [5] | Ki [5] | IC50 [6] | IC50 [7] | IC50 [8]

CC(C)Cn1cnc2c(N)nc3ccccc3c21 [IMIQUIMOD]
Not Active: IC50 [1] | Ki [1] | IC50 [2] | IC50 [3] | Ki [3] | Ki [4] | IC50 [5] | Ki [5] | IC50 [6] | IC50 [7] | IC50 [8]

O=C1CN(/N=C/c2ccc([N+](=O)[O-])o2)C(=O)N1 [NITROFURANTOIN]
Not Active: IC50 [1] | Ki [1] | IC50 [2] | IC50 [3] | Ki [3] | IC50 [4] | IC50 [5] | Ki [5] | IC50 [6] | IC50 [7] | IC50 [8]

Cc1c(N)nc([C@H](CC(N)=O)NC[C@H](N)C(N)=O)nc1C(=O)N[C@H](C(=O)N[C@H](C)[C@@H](O)[C@H](C)C(=O)N[C@H](C(=O)NCCc1nc(-c2nc(C(=O)NCCC[S+](C)C)cs2)cs1)[C@@H](C)O)[C@@H](O[C@@H]1O[C@@H](CO)[C@@H](O)[C@H](O)[C@@H]1O[C@H]1O[C@H](CO)[C@@H](O)[C@H](OC(N)=O)[C@@H]1O)c1c[nH]cn1.[Br-] [BLEOMYCIN A2]
Not Active: IC50 [1] | Ki [1] | IC50 [2] | IC50 [3] | Ki [3] | IC50 [4] | IC50 [5] | Ki [5] | IC50 [6] | IC50 [7] | IC50 [8]

CC(C)Cc1ccc([C@H](C)C(=O)O)cc1 [DEXIBUPROFEN]
Not Active: IC50 [1] | Ki [1] | IC50 [2] | IC50 [3] | Ki [3] | IC50 [4] | IC50 [5] | Ki [5] | IC50 [6] | IC50 [7] | IC50 [8]

NS(=O)(=O)c1cc(C(=O)O)c(NCc2ccco2)cc1Cl [FUROSEMIDE]
Not Active: IC50 [1] | Ki [1] | IC50 [2] | IC50 [3] | Ki [3] | IC50 [4] | IC50 [5] | Ki [5] | IC50 [6] | IC50 [7] | IC50 [8]

C[C@H]1C[C@H]2[C@@H]3CCC4=CC(=O)C=C[C@]4(C)[C@@]3(F)[C@@H](O)C[C@]2(C)[C@@]1(O)C(=O)CO [BETAMETHASONE]
Not Active: IC50 [1] | Ki [1] | IC50 [2] | IC50 [3] | Ki [3] | IC50 [4] | IC50 [5] | Ki [5] | IC50 [6] | IC50 [7] | IC50 [8]

COC(=O)C[C@](O)(CCC(C)(C)O)C(=O)O[C@@H]1C(OC)=C[C@]23CCCN2CCc2cc4c(cc2[C@H]13)OCO4 [HARRINGTONINE]
Not Active: IC50 [1] | Ki [1] | IC50 [2] | IC50 [3] | Ki [3] | IC50 [4] | IC50 [5] | Ki [5] | IC50 [6] | IC50 [7] | IC50 [8]

CC(C)(c1ccc(O)cc1)c1ccc(O)cc1 [BISPHENOL A]
Not Active: IC50 [1] | Ki [1] | IC50 [2] | IC50 [3] | Ki [3] | IC50 [4] | IC50 [5] | Ki [5] | IC50 [6] | IC50 [7] | IC50 [8]

CCN1CCN(C(=O)N[C@@H](C(=O)N[C@@H]2C(=O)N3[C@@H]2SC(C)(C)[C@@H]3C(=O)O)c2ccccc2)C(=O)C1=O [PIPERACILLIN]
Not Active: IC50 [1] | Ki [1] | IC50 [2] | IC50 [3] | Ki [3] | IC50 [4] | IC50 [5] | Ki [5] | IC50 [6] | IC50 [7] | IC50 [8]

CC[C@H]1OC(=O)[C@H](C)[C@@H](O[C@H]2C[C@@](C)(OC)[C@@H](O)[C@H](C)O2)[C@H](C)[C@@H](O[C@@H]2O[C@H](C)C[C@H](N(C)C)[C@H]2O)[C@](C)(O)C[C@@H](C)C(=O)[C@H](C)[C@@H](O)[C@]1(C)O [ERYTHROMYCIN]
Not Active: IC50 [1] | Ki [1] | IC50 [2] | IC50 [3] | Ki [3] | IC50 [4] | IC50 [5] | Ki [5] | IC50 [6] | IC50 [7] | IC50 [8]

NC(N)=Nc1nc(CSCCC(N)=NS(N)(=O)=O)cs1 [FAMOTIDINE]
Not Active: IC50 [1] | Ki [1] | IC50 [2] | IC50 [3] | Ki [3] | IC50 [4] | IC50 [5] | Ki [5] | IC50 [6] | IC50 [7] | IC50 [8]
